Measured values taken from patent US20120270864A1, “2-QUINOLINONE AND 2-QUINOXALINONE-DERIVATIVES AND THEIR USE AS ANTIBACTERIAL AGENTS” (ASTRAZENECA AB, priority 2006, published 2012).

Tested on: Staphylococcus aureus (Sau) 516 cells
Experiment: Bacterial Susceptibility Testing Methods 2 (microbroth dilution, growth inhibition)
Format: cell-based
Details: for inhibition at 8 µg/mL / Inhibition (%): Tested Concentration 8 μg/mL, Staphylococcus aureus 516 cell growth suppressed compared to untreated sample
From the text: Compounds may be tested for antimicrobial activity by susceptibility testing using microbroth dilution methods recommended by CSLI. Compounds may be dissolved in dimethylsulfoxide and tested in 10 doubling dilutions in the susceptibility assays such that the final dimethylsulfoxide concentration in the assay is 2% (v/v). The Staphylococcus aureus (Sau) 516 cells used in the assay may be grown overnight on appropriate agar media and then suspended in the NCCLS-recommended liquid susceptibility-testing media. […] Plates may be incubated under appropriate conditions of atmosphere and temperature and for times according to NCCLS standard methods prior to being read. As used in Table 1 below, the term “inhibition” refers to the percentage of Staphylococcus aureus 516 cell growth that is suppressed (compared to an untreated sample) by the compound of the indicated example number. When tested in the above in-vitro assay, the compounds and salts of the example numbers listed below were tested at the indicated concentrations, providing the indicated inhibitions. In most instances, the highest concentrations at which the compounds were tested was 8 μg/mL. In some instances, however, compounds were tested at concentrations higher than 8 μg/mL, typically when the concentration was first measured in μM and was subsequently converted to μg/mL. In those cases in which compounds were tested at more than one concentration higher than 8 μg/mL, the concentration closest to 8 μg/mL is provided below.

SMILES | inhibition at 8 µg/mL (Staphylococcus aureus) [%] | also measured
COc1ccc2ncc(=O)n(CCN3CC[C@@H](NCc4cc5c(cn4)OCCO5)[C@@H](O)C3)c2c1 [Example 10, 1-(2-{(3S,4R)-4-[(2,3-Dihydro[1,4]dioxino[2,3-c]pyridin-7-ylmethyl)amino]-3-hydroxypiperidin-1-yl}ethyl)-7-methoxyquinoxalin-2(1H)-one] | 100 | 
COc1ccc2ncc(=O)n(CCN3CCC(NCc4ccc5c(n4)NC(=O)CO5)C(O)C3)c2c1 (single isomer, unassigned) [Example 30, 6-[({3-Hydroxy-1-[2-(7-methoxy-2-oxoquinoxalin-1(2H)-yl)ethyl]piperidin-4-yl}amino)methyl]-2H-pyrido[3,2-b][1,4]oxazin-3(4H)-one] | 98 | 
N#Cc1ccc2ccc(=O)n(CCN3CC[C@H](NCc4cc5c(cn4)OCCO5)[C@H](F)C3)c2c1 [Example 13, 1-(2-{(3R,4S)-4-[(2,3-Dihydro[1,4]dioxino[2,3-c]pyridin-7-ylmethyl)amino]-3-fluoropiperidin-1-yl}ethyl)-2-oxo-1,2-dihydro quino line-7-carbonitrile] | 100 | 
N#Cc1ccc2ccc(=O)n(CCN3CC[C@H](NCc4cc5c(cn4)OCCO5)[C@H](O)C3)c2c1 [Example 1] |  | Inhibition (%): 100%
CO[C@H]1CN(CCn2c(=O)ccc3ccc(C#N)cc32)CC[C@@H]1NCc1cc2c(cn1)OCCO2 [Example 43, 1-(2-{(3S,4S)-4-[(2,3-Dihydro[1,4]dioxino[2,3-c]pyridin-7-ylmethyl)amino]-3-methoxypiperidin-1-yl}ethyl)-2-oxo-1,2-dihydroquinoline-7-carbonitrile] | 12 | inhibition at 4 µg/mL (Staphylococcus aureus, Tested Concentration 4 μg/mL, Staphylococcus aureus 516 cell growth): 100%
CO[C@@H]1CN(CCn2c(=O)ccc3ccc(C#N)cc32)CC[C@H]1NCc1ccc2c(n1)NC(=O)CO2 [Example 42, 1-[2-((3R,4R)-3-methoxy-4-{[(3-oxo-3,4-dihydro-2H-pyrido[3,2-b][1,4]oxazin-6-yl)methyl]amino}piperidin-1-yl)ethyl]-2-oxo-1,2-dihydroquinoline-7-carbonitrile] | 100 | 
CO[C@H]1CN(CCn2c(=O)ccc3ccc(C#N)cc32)CC[C@H]1NCc1cc2c(cn1)OCCO2 [Example 19, 1-(2-{(3S,4R)-4-[(2,3-Dihydro[1,4]dioxino[2,3-c]pyridin-7-ylmethyl)amino]-3-methoxypiperidin-1-yl}ethyl)-2-oxo-1,2-dihydro quinoline-7-carbonitrile] | 100 | 
N#Cc1ccc2ccc(=O)n(CCN3CC[C@@H](NCc4cc5c(cn4)OCCO5)[C@@H](O)C3)c2c1 [Example 4, 1-(2-{(3S,4R)-4-[(2,3-Dihydro[1,4]dioxino[2,3-c]pyridin-7-ylmethyl)amino]-3-hydroxypiperidin-1-yl}ethyl)-2-oxo-1,2-dihydroquinoline-7-carbonitrile] | 100 | 
COc1ccc2ncc(=O)n(CCN3CC[C@H](NCc4ccc5c(n4)NC(=O)CO5)[C@H](OC)C3)c2c1 [Example 17, 6-[({(3R,4S)-3-Methoxy-1-[2-(7-methoxy-2-oxoquinoxalin-1(2H)-yl)ethyl]piperidin-4-yl}amino)methyl]-2H-pyrido[3,2-b][1,4]oxazin-3(4H)-one] | 99 | 
N#Cc1ccc2ccc(=O)n(CCN3CC[C@@H](NCc4cc5c(cn4)OCCO5)[C@@H](F)C3)c2c1 [Example 12, 1-(2-{(3S,4R)-4-[(2,3-Dihydro[1,4]dioxino[2,3-c]pyridin-7-ylmethyl)amino]-3-fluoropiperidin-1-yl}ethyl)-2-oxo-1,2-dihydroquinoline-7-carbonitrile] | 100 | 
N#Cc1ccc2ccc(=O)n(CCN3CC[C@@H](NCc4ccc5c(n4)NC(=O)CO5)[C@@H](O)C3)c2c1 [Example 5, 1-[2-((3S,4R)-3-Hydroxy-4-{[(3-oxo-3,4-dihydro-2H-pyrido[3,2-b][1,4]oxazin-6-yl)methyl]amino}piperidin-1-yl)ethyl]-2-oxo-1,2-dihydro quino line-7-carbonitrile] | 100 | 
COc1ccc2ncc(=O)n(CCN3CCC(NCc4cc5c(cn4)OCCO5)C(O)C3)c2c1 (single isomer, unassigned) [Example 31, 1-(2-{4-[(2,3-dihydro[1,4]dioxino[2,3-c]pyridin-7-ylmethyl)amino]-3-hydroxypiperidin-1-yl}ethyl)-7-methoxyquinoxalin-2(1H)-one] |  | Inhibition (%): 87%
COc1ccc2ncc(=O)n(CCN3CC[C@@H](NCc4ccc5c(n4)NC(=O)CO5)[C@@H](OC)C3)c2c1 [Example 15, 6-[({(3S,4R)-3-Methoxy-1-[2-(7-methoxy-2-oxoquinoxalin-1(2H)-yl)ethyl]piperidin-4-yl}amino)methyl]-2H-pyrido[3,2-b][1,4]oxazin-3 (4H)-one] | 97 | 
COc1ccc2ncc(=O)n(CCN3CC[C@H](NCc4cc5c(cn4)OCCO5)[C@H](O)C3)c2c1 [Example 7, 1-(2-{(3R,4S)-4-[(2,3-Dihydro[1,4]dioxino[2,3-c]pyridin-7-ylmethyl)amino]-3-hydroxypiperidin-1-yl}ethyl)-7-methoxyquinoxalin-2(1H)-one] | 100 | 
CO[C@@H]1CN(CCn2c(=O)cc(C)c3ccc(C#N)cc32)CC[C@@H]1NCc1ccc2c(n1)NC(=O)CO2 [Example 47, 1-[2-((3R,4S)-3-M ethoxy-4-{[(3-oxo-3,4-dihydro-2H-pyrido[3,2-b][1,4]oxazin-6-yl)methyl]amino}piperidin-1-yl)ethyl]-4-methyl-2-oxo-1,2-dihydroquinoline-7-carbonitrile] | 100 | 
CO[C@H]1CN(CCn2c(=O)ccc3ccc(C#N)cc32)CC[C@@H]1NCc1ccc2c(n1)NC(=O)CO2 [Example 44, 1-[2-((3S,4S)-3-Methoxy-4-{[(3-oxo-3,4-dihydro-2H-pyrido[3,2-b][1,4]oxazin-6-yl)methyl]amino}piperidin-1-yl)ethyl]-2-oxo-1,2-dihydroquinoline-7-carbonitrile] | 100 | 
COc1ccc2ncc(=O)n(CCN3CCC(NCc4ccc5c(n4)NC(=O)CO5)C(F)C3)c2c1 (single isomer, unassigned) [Example 36, 6-[({3-Fluoro-1-[2-(7-methoxy-2-oxoquinoxalin-1(2H)-yl)ethyl]piperidin-4-yl}amino)methyl]-2H-pyrido[3,2-b][1,4]oxazin-3(4H)-one] |  | inhibition at 12 µg/mL (Staphylococcus aureus, Tested Concentration 12 μg/mL, Staphylococcus aureus 516 cell growth): 90%
COc1ccc2ncc(=O)n(CCN3CC[C@H](NCc4cc5c(cn4)OCCO5)[C@@H](OC)C3)c2c1 [Example 25, 1-(2-{(3S,4S)-4-[(2,3-Dihydro[1,4]dioxino[2,3-c]pyridin-7-ylmethyl)amino]-3-methoxypiperidin-1-yl}ethyl)-7-methoxyquinoxalin-2(1H)-one] | 98 | 
COc1ccc2ncc(=O)n(CCN3CC[C@H](NCc4ccc5c(n4)NC(=O)CO5)[C@@H](OC)C3)c2c1 [Example 26, 6-[({(3S,4S)-3-Methoxy-1-[2-(7-methoxy-2-oxoquinoxalin-1(2H)-yl)ethyl]piperidin-4-yl}amino)methyl]-2H-pyrido[3,2-b][1,4]oxazin-3(4H)-one] | 98 | 
CO[C@@H]1CN(CCn2c(=O)ccc3ccc(C#N)cc32)CC[C@@H]1NCc1cc2c(cn1)OCCO2 [Example 22, 1-(2-{(3R,4S)-4-[(2,3-Dihydro[1,4]dioxino[2,3-c]pyridin-7-ylmethyl)amino]-3-methoxypiperidin-1-yl}ethyl)-2-oxo-1,2-dihydroquinoline-7-carbonitrile] | 100 | 
